Measurements published in patent US12527814B2, “Treatment of an ocular infection, composition and methods thereof” (priority 2019, dated 2026).
Like-named read-outs stand apart in the source and are kept apart here.

Experiments:
T. pulmonis-PW1004 [1] = experiment: Treatment of experimental Tsukamurella keratitis in rabbits
Procedure: 6.4.4 Development of a rabbit model for Tsukamurella keratitis. Bacterial suspensions used to infect rabbits were prepared by culturing T. pulmonis-PW1004 in BHI for 48 h. Eight male NZW rabbits, 1.5-2.0 kg, were inoculated intrastromally as described previously^37. Corneas of 4 rabbits were injected with approximately 10 μl (i.e., 10^6 CFU) of T. pulmonis-PW1004 using a microliter syringe with a 30 G needle. Another 4 rabbit corneas were challenged with plain culture medium as the control. Rabbits were monitored daily for signs of disease. At 24 h PI, rabbit eyes were photographed, evaluated for pathology, and sacrificed. After euthanasia, the corneas of each rabbit were surgically removed for histopathological and immunohistochemical analyses and bacterial enumeration.
6.4.5 Treatment of experimental Tsukamurella keratitis. Efficacy of the two antibiotics, topical 0.5% Cravit® levofloxacin (Santen Pharmaceutical Company, Japan) and 0.02% PHMB (Lonza, Switzerland), for the treatment of Tsukamurella keratitis were evaluated, respectively. Tsukamurella keratitis was first established in 12 NZW rabbits (n=4 per group) using procedures as described above. Infection was allowed to proceed for 24 h before initiation of antibiotic therapy. These 12 NZW rabbits were divided into 3 topical treatment groups: (1) 0.5% levofloxacin, (2) 0.02% PHMB, and (3) saline. Treatment regimens of levofloxacin and PHMB were performed according to Fiscella et al. and Kowalski et al., respectively, with slight modifications^16,17. For the first group of rabbits treated with levofloxacin (n=4), drops (50 μl) of levofloxacin were applied to the affected eyes hourly for 10 doses over 3 days. For the second group of rabbits treated with PHMB (n=4), drops (50 μl) of PHMB were applied to the affected eyes hourly for 8 doses over 3 days. Rabbits in the third control group (n=4) received the same regimen of sterile saline (0.85% NaCl) hourly for 10 doses over 3 days. In addition to these 3 treatment groups, two extra NZW rabbits without infection were used as controls (i.e., mock-infected and mock-treated rabbits), receiving the same regimen of saline for 3 days. One hour after the final instillation of the antibiotics and saline drops, rabbit eyes were photographed, evaluated for pathology, and sacrificed. The treatment efficacy was compared and evaluated by the quantitative culture and histopathological analysis of the infected corneas.
6.4.6 Quantification of Tsukamurella cells. To quantify the number of viable Tsukamurella in the cornea, the cornea harvested from each rabbit was cut into smaller pieces using a sterile scalpel. The corneal pieces were placed into a sterile tube containing 500 μl of PBS (pH 7.2). Each tissue was homogenized, and homogenates were serially diluted 10-fold in PBS (pH 7.2). One hundred microliters of each diluted sample was plated in triplicate on the BHI agar and incubated at 37° C. under aerobic conditions for 48 h. The number of bacteria was determined and expressed as CFU/cornea.
To examine the histopathology of corneal tissues of rabbits challenged with the PW1004-WT and its derivative mutants, excised infected eyes, including the cornea of challenged rabbits, were subjected to histopathological examination. Corneal tissues harvested from the rabbits were fixed in 10% neutral-buffered formalin, embedded in paraffin, and stained with hematoxylin and eosin (H&E) according to Fischer et al.^39.

Tsukamurella = settings: literature refs 3, 12; cited from earlier work
T. pulmonis-PW1004 [2] = settings: for Zone of inhibition: 6 mm disk, 48 h, 37° C.
From the text: Disk diffusion assay was initially used to determine the susceptibility of T. pulmonis-PW1004 against various concentrations of PHMB. Briefly, standard paper disks, 6 mm in diameter, impregnated with different dilutions of PHMB (0.0005%, 0.001%, 0.0025%, 0.005%) were placed onto BHI agar plates inoculated with overnight culture of a 0.5 McFarland standard prepared from T. pulmonis-PW1004, following standard procedures^15. Paper disks soaked in 0.85% NaCl were used as the control. Zones of inhibition were measured after 48 h of incubation at 37° C. under aerobic conditions. […] Next, we re-examined the susceptibility of the 4 contact lens solutions against the 7 Tsukamurella species by adjusting the final concentration of PHMB to 0.0025%, following the procedures as described in the previous paragraph.

T. tyrosinosolvens-PW899 = system: T. tyrosinosolvens-PW899
Procedure: (§1) 6.4.9 In vitro susceptibility of planktonic cultures of Tsukamurella against contact lens and PHMB solutions. A susceptibility test was performed following the procedures as described in FDA/ISO14729 stand-alone procedure for disinfecting products^13. Briefly, 0.1 ml of 1×10^8 CFUs/ml bacterial suspension from 7 different Tsukamurella species was added into 10 ml each of the 4 commercial contact lens solutions, respectively, and the mixture was incubated at room temperature according to the manufacturer's recommended disinfection time (Table 1). After incubation, a 1-ml aliquot was withdrawn from each mixture and added to 9 ml of Dey-Engley neutralizing broth (Sigma, USA) for 15 min at room temperature for neutralization of the preservative. The mixture was then serially diluted, and 100 μl of each diluted sample was plated in triplicate on the BHI agar for sampling of viable bacteria. P. aeruginosa ATCC27853 was used as a control. The mean logarithmic reduction was calculated. According to the guideline, only a contact lens solution capable of reducing the viability of starting concentration of bacteria by 3-log is defined as satisfactory. All experiments were performed in triplicate and repeated 3 times along with the control strain.

T. pulmonis-PW1004 [3] = system: T. pulmonis-PW1004
Procedure: as §1

[4] = 0.02% PHMB topical for 3 days, compared to saline control rabbits
[5] = PHMB 0.005% compared with 0.0025%

Q: For `C[C@H]1COc2c(N3CCN(C)CC3)c(F)cc3c(=O)c(C(=O)O)cn1c23` [levofloxacin], which “corneal perforation and adverse signs” value (T. pulmonis-PW1004 [1]; rabbit, in vivo) is on record?
A: The value was “corneal perforations with severe discharges accompanied by behavioral abnormalities”.

Q: Which “susceptibility of Tsukamurella to topical antibiotic eye drops” value (Tsukamurella) does the source give for `O=C(N[C@H](CO)[C@H](O)c1ccc([N+](=O)[O-])cc1)C(Cl)Cl` [chloramphenicol] here?
A: Its value is “generally resistant”.

Q: What does the source list for polyhexamethylene biguanide [PHMB]?
A: Zone of inhibition (T. pulmonis-PW1004 [2]; PHMB concentration 0.0005%): 0 mm; Zone of inhibition (T. pulmonis-PW1004 [2]; PHMB concentration 0.001%): 0 mm; Zone of inhibition (T. pulmonis-PW1004 [2]; PHMB concentration 0.0025%): 13 mm; Zone of inhibition (T. pulmonis-PW1004 [2]; PHMB concentration 0.005%): 14 mm; minimal concentration that achieved good efficacy (T. pulmonis-PW1004 [2]; disk diffusion, preliminary results): 0.0025%; PMN infiltration in corneal stroma and epithelium (T. pulmonis-PW1004 [1]; [4]): less evident; histological examination: stromal edema and capillary formation (T. pulmonis-PW1004 [1]; [4]): lower degree of stromal edema as well as capillary formation; keratitis symptoms, gross appearance (T. pulmonis-PW1004 [1]; [4]): keratitis symptoms became less severe; number of bacteria recovered from the cornea (T. pulmonis-PW1004 [1]; 0.02% PHMB topical, hourly 8 doses over 3 days, started 24 h PI, P<0.01 vs saline): 1.05±0.07 log; corneal perforation (T. pulmonis-PW1004 [1]; 0.02% PHMB topical, whole course of treatment): did not observe corneal perforation; toxicity in rabbit corneal tissues (T. pulmonis-PW1004 [1]; PHMB 0.02% topical): no toxicity; log reduction (T. tyrosinosolvens-PW899; PHMB 0.0005%): < 3 log; log reduction (T. tyrosinosolvens-PW899; PHMB 0.001%): < 3 log; log reduction (T. tyrosinosolvens-PW899; PHMB 0.0025%): 3 log; further reduction of bacterial numbers (T. tyrosinosolvens-PW899; [5]): could not be further reduced; log reduction (T. pulmonis-PW1004 [3]; PHMB 0.0005%): < 3 log; log reduction (T. pulmonis-PW1004 [3]; PHMB 0.001%): < 3 log; log reduction (T. pulmonis-PW1004 [3]; PHMB 0.0025%): 3 log; further reduction of bacterial numbers (T. pulmonis-PW1004 [3]; [5]): could not be further reduced
